Where two headings read alike, the source gives them in different places.

A short description of data set [1]: NutriPro test: serum, RBC and WBC nutrient values before and after ATB / customized blend. The data set is classed as in vivo, human. As to conditions: for Pre-test biomarker level: before ATB; for Follow-up Nutrient Level / Actual Nutrient Value (ANV): person three; for Actual Nutrient Value (ANV): before customized blend. The source says:
The method for providing a nutritional supplement for a subject as disclosed herein is based on a comprehensive panel that assesses intracellular and extracellular levels of at least or up to 41 nutrients. […] Blood analysis using the method disclosed herein tests for nutrient levels in serum, red blood cells (RBCs), and white blood cells (WBCs). Additional genetic testing can assess patients' predispositions toward nutrient deficiencies. Based on the blood and genetic analysis results, a subsequent supplementation diet comprising supplements and food sources can be designed and implemented. The subject can be a human subject.
(§1) In some embodiments, the detection method is mass spectrometry.
The ‘NutriPro’ test is used to assess serum (extracellular), RBC, and WBC (intracellular) nutrient values along with genetic testing for any predispositions with could be affecting nutrient values in the body. If required, additional tests such as the gut zoomer, cardiovascular health, thyroid test, kidney function test, liver function test, etc, are carried out. FIG. 1 provides a schematic diagram of the process of the NutriPro test from the individual subject to the creation of customized nutritional blends.
The ATB is given to the individual for nutritional supplementation, and blood testing for nutrients in serum, RBC, and WBC is carried out after 3 or 6 months.
The assessed change is called the VAF.
After testing, the individual takes the ATB or the customized blend for the amount of time indicated.

A short description of data set [2]: Vibrant Absorption Factor (VAF): difference of post- and pre-supplementation nutrient values divided by ATB dosage.
Text: Improvement in nutrition can be determined by comparing the nutrient values in serum, RBC, and WBCs post-nutritional supplementation to the nutrient values in serum, RBC, and WBCs pre-nutritional supplementation. Based on the improvement, the change in the nutrient levels can be attributed to the per milligram dosage of the supplemented nutrients. The assessed nutritional change is the “Vibrant Absorption factor (VAF (see Equation (1) below). The VAF can be used to determine the subject's utilization of the supplemented nutrients, as determined by the difference in extracellular and intracellular nutrient values before and after supplementation. Based on the subject's utility or absorption of the nutrients, the dosage amount of the nutrient needed to be supplemented or increased to effect change of the subject's nutrient values into the optimum nutrient zone can be assessed. In various embodiments, the VAF is determined by administering a pre-determined formulation, referred to herein as the Absorption Testing Blend.
Next, the ATB is administered to the individual for a predefined period at step 320a, after which nutrient levels and the genetic nutrient profile are re-evaluated, to obtain the post-supplementation biomarker values at step 330.
This includes determining the VAF based on the difference between post- and pre-supplementation biomarker values, which is divided by the ATB dosage.
The assessed change is called the VAF. The VAF is used to understand how the individual's body is utilizing these nutrients, depending on the difference in extracellular and intracellular nutrient values before and after supplementation. Based on the body's utility or absorption of the nutrients, the amount of nutrients needed to be supplemented to alter the individual's nutrient values into the optimum nutrient zone is understood. The VAF calculations help in determining the appropriate dosages of nutrients required in the ‘customized blend.’
Data set [3] in a line: Extracellular (serum) nutrient levels by mass spectrometry (LC-MS, GC-MS, ICP-MS). As to conditions: for Follow-up Nutrient Level / Actual Nutrient Value (ANV): Level: Serum, person; for Follow-up Nutrient Level: after customized blend; for Actual Nutrient Value (ANV): before customized blend.
Text: In some embodiments, the detection method assesses nutrients both in extracellular plasma and intracellular in RBC and WBC. In some embodiments, the detection method is mass spectroscopy-based. The extracellular and intracellular nutrient levels provide a comprehensive analysis of a subject's nutrient status, reflecting not only the intake levels but also the absorption levels into the cells.
In some aspects, the extracellular nutrient levels provide a snapshot of the status of nutrient baseline levels at a given time. It is a reflection of a person's diet over a narrow period of time. In contrast, the intracellular levels of nutrients provide information on the absorbed levels of nutrients, thus accounting for factors such as aging, lifestyle, chronic illness, medication, etc. that could interfere with absorption and can change the functional nutritional levels.
In some embodiments, the detection method is mass spectrometry. In some embodiments, the detection method is Liquid chromatography-mass spectrometry (LC-MS), Gas chromatography-mass spectrometry (GC-MS), or Inductively coupled plasma-mass-spectrometry (ICP-MS). In some embodiments, the detection method is Liquid chromatography-mass spectrometry (LC-MS). In some embodiments, the detection method is Gas chromatography-mass spectrometry (GC-MS). In some embodiments, the detection method is Inductively coupled plasma-mass-spectrometry (ICP-MS).
In some embodiments, the method provided herein evaluates nutrient levels, both in extracellular serum and inside (intracellular) red blood cells (RBC) and/or white blood cells (WBC). The extracellular nutrient levels provide a snapshot of the status of nutrient baseline levels at a given time. These extracellular nutrient levels are a reflection of a person's diet over a narrow period of time. In contrast, RBCs have a normal lifespan of 120 days, and thus intracellular assessments for nutrients in RBCs can provide information on nutrients over longer periods. Additionally, the intracellular levels of nutrients provide information on the absorbed levels of nutrients, thus accounting for factors such as, but not limited to, aging, lifestyle, chronic illness, and medication, that can interfere with absorption and can change the functional nutritional levels. Moreover, actual nutrient utilization occurs inside the cell owing to cellular metabolic processes. At times, nutrients could be present in serum, but poor cellular uptake may result in cells being devoid of these nutrients, thus giving rise to nutrient deficiencies owing to affected cellular activities. […] As a result, it is important to assess nutrients intracellularly in addition to extracellularly. Thus, the intracellular assessment provides information on cellular uptake and utilization of nutrients at the most fundamental level, enabling understanding of the root cause of nutrient deficiencies.
The subject individual fills out the health questionnaire (PHQ) which helps establishes factors such as symptoms, complications, comorbidities, and ongoing medications. The subject's blood is drawn and the extracellular serum and intracellular blood cells are tested for nutritional deficiencies via mass spectroscopy (e.g., Liquid chromatography-mass spectrometry (LC-MS), Gas chromatography-mass spectrometry (GC-MS), or Inductively coupled plasma-mass-spectrometry (ICP-MS)).
The conditions of data set [4]: cited from earlier work.
A short description of data set [5]: Intracellular (RBC / WBC, cellular) nutrient levels by mass spectrometry. It counts as in vivo, human. As to conditions: Level: Cells, person, unit not given; for Follow-up Nutrient Level: after customized blend; for Actual Nutrient Value (ANV): before customized blend.
Text: as §1

[6] abbreviates: person one, serum, after customized blend.
[7] abbreviates: person two, cells, after customized blend.
Where [8] appears, read: person two, serum, after customized blend.
Where [9] appears, read: person one, cells, after customized blend.
Where [10] appears, read: person two, level: Questionnaire.

Consider `[Cu]` [Copper], for which the Post-test biomarker level in data set [1] (person one, serum, after ATB) amounted to 900 ng/mL. Also, in data set [1] (setting [6]), the “Follow-up Biomarker level” value came out at 1690 ng/mL. In data set [1] (person one, serum), this compound displayed a Pre-test biomarker level of 200 ng/mL. The VAF in data set [2] (person one, serum) was determined as 8.75. In addition, in data set [3], the “Follow-up Nutrient Level” value worked out at 0.5 µg/mL and the “Actual Nutrient Value (ANV)” value amounted to 100 ng/mL. Also, in data set [4] (Table 18, person one), the UTL is 10 mg/day.
Regarding `CC/C=C\C/C=C\C/C=C\C/C=C\C/C=C\C/C=C\CCC(=O)O` [DHA], in data set [5], the “Follow-up Nutrient Level” value amounted to 0.9 and the “Actual Nutrient Value (ANV)” value amounted to 0.9. The same compound gave a Post-test biomarker level in data set [1] (person two, cells, after ATB, unit not given) of 1.9. Besides, the “Follow-up Biomarker level” value in data set [1] (person two, cells, after customized blend, unit not given) is on record as 9.4. In data set [1] (person two, cells, unit not given), the Pre-test biomarker level turned out to be 1.2. The same compound yielded a VAF in data set [2] (person two, cells) of 0.14.
In the case of `CC/C=C\C/C=C\C/C=C\C/C=C\C/C=C\CCCC(=O)O` [EPA], in data set [5], the “Follow-up Nutrient Level” value is 0.05 and the “Actual Nutrient Value (ANV)” value came out at 0.05. Moreover, in data set [1] (person one, cells, after ATB, unit not given), the Post-test biomarker level came out at 0.87. The “Follow-up Biomarker level” value in data set [1] (person one, cells, after customized blend, unit not given) stood at 2.1. The compound also registered a Pre-test biomarker level in data set [1] (person one, cells, unit not given) of 0.1. The compound also displayed a VAF in data set [2] (person one, cells) of 0.154.
`Nc1nc2ncc(CNc3ccc(C(=O)N[C@@H](CCC(=O)O)C(=O)O)cc3)nc2c(=O)[nH]1` [Folate]: the “Follow-up Biomarker level” value was determined as 14.5 ng/mL in data set [1] (female, human, in vivo) and 14.3 ng/mL in data set [1] (setting [6]). The Post-test biomarker level in data set [1] (female, human, in vivo) stood at 3.3 ng/mL; in data set [1] (person one, serum, after ATB), 2.8 ng/mL. The Pre-test biomarker level in data set [1] (person one, serum) is 1.2 ng/mL; in data set [1] (person two, serum) it was 0.9 ng/mL. Also, the VAF turned out to be 0.032 in data set [2] (person one, serum) and 0.048 in data set [2] (person two, serum). Moreover, in data set [3], the “Actual Nutrient Value (ANV)” value was 0.8 ng/mL. The compound further displayed a concentration at 3 months in data set [3] (female, human, serum) of 1.2 ng/mL.
For `N[C@@H](CO)C(=O)O` [L-Serine], in data set [3], the “Follow-up Nutrient Level” value was 51 nmol/mL and the “Actual Nutrient Value (ANV)” value is 44 nmol/mL. The UTL in data set [4] (upper tolerable limit) was 12000 mg/day.
`[Mg]` [Magnesium]: the Post-test biomarker level in data set [1] (person one, serum, after ATB) was 17000 ng/mL. The “Follow-up Biomarker level” value in data set [1] (setting [6]) was 25200 ng/mL. The compound also came in with a Pre-test biomarker level in data set [1] (person one, serum) of 5000 ng/mL. In data set [2] (person one, serum), the VAF was 0.012. In addition, in data set [4] (Table 18, person one), the UTL is 350 mg/day.
For `[Mn+2]` [Manganese], the Post-test biomarker level in data set [1] (person two, cells, after ATB) was 7.8 pg/MM WBC; in data set [1] (person two, serum, after ATB) it was 0.62 ng/mL. Also, the “Follow-up Biomarker level” value came out at 67.5 pg/MM WBC in data set [1] (setting [7]) and 2.1 ng/mL in data set [1] (setting [8]). The Pre-test biomarker level in data set [1] (person two, cells) is reported as 0.5 pg/MM WBC; in data set [1] (person two, serum) it was 0.4 ng/mL. For the same compound, the VAF is reported as 7.684 in data set [2] (person two, cells) and 0.2316 in data set [2] (person two, serum). Further, in data set [4] (Table 19, person two), the UTL is recorded as 11 mg/day.
Turning to `[K+]` [Potassium], in data set [3], the “Follow-up Nutrient Level” value came out at 3400 nmol/mL and the “Actual Nutrient Value (ANV)” value amounted to 2800 nmol/mL.
`O=C(O)c1cccnc1` [Vitamin B3] registered a Post-test biomarker level in data set [1] (person one, serum, after ATB) of 3.9 ng/mL. Also, the “Follow-up Biomarker level” value in data set [1] (setting [6]) was 70.1 ng/mL. This compound came in with a Pre-test biomarker level in data set [1] (person one, serum) of 1.1 ng/mL. The same compound gave a VAF in data set [2] (person one, serum) of 0.7. Besides, in data set [4] (Table 18, person one), the UTL is given as 35 mg/day.
In data set [1] (person two, serum, after ATB), `CC(C)(CO)[C@@H](O)C(=O)NCCC(=O)O` [Vitamin B5] displayed a Post-test biomarker level of 23.5 ng/mL. For the same compound, in data set [1] (setting [8]), the “Follow-up Biomarker level” value stood at 311 ng/mL. Besides, in data set [1] (person two, serum), the Pre-test biomarker level turned out to be 14.4 ng/mL. In data set [2] (person two, serum), this compound came in with a VAF of 18.2. Further, in data set [3], the “Follow-up Nutrient Level” value is 0.0144 µg/mL and the “Actual Nutrient Value (ANV)” value was found to be 5.4 ng/mL.
Turning to `O=C1O[C@H]([C@@H](O)CO)C(O)=C1O` [Vitamin C], the Post-test biomarker level in data set [1] (person one, cells, after ATB) turned out to be 1.1 pg/MM WBC; in data set [1] (person two, cells, after ATB) it was 1.1 pg/MM WBC. Also, the results for the “Follow-up Biomarker level” value in data set [1] (setting [9]) and in data set [1] (setting [7]) were 9.2 pg/MM WBC and 8.3 pg/MM WBC, respectively. Moreover, the Pre-test biomarker level in data set [1] (person one, cells) turned out to be 0.05 pg/MM WBC; in data set [1] (person two, cells), 0.1 pg/MM WBC. The VAF in data set [2] (person one, cells) is 0.07; in data set [2] (person two, cells), 0.06667. In addition, in data set [3], the “Follow-up Nutrient Level” value came to 2.3 µg/mL. Besides, in data set [3], the “Actual Nutrient Value (ANV)” value is 1000 ng/mL.
Consider `C=C1CC[C@H](O)C/C1=C/C=C1\CCC[C@]2(C)[C@@H]([C@H](C)CCCC(C)C)CC[C@@H]12` [Vitamin D3], for which the Post-test biomarker level in data set [1] (person one, cells, after ATB) is listed as 18.9 pg/MM WBC; in data set [1] (person one, serum, after ATB) it was 2.3 ng/mL; in data set [1] (person two, cells, after ATB) it was 18.9 pg/MM WBC. The “Follow-up Biomarker level” value in data set [1] (setting [9]) is listed as 212 pg/MM WBC; in data set [1] (setting [6]) it was 8.7 ng/mL; in data set [1] (setting [7]), 221 pg/MM WBC. Also, the Pre-test biomarker level in data set [1] (person one, cells) stood at 12.2 pg/MM WBC; in data set [1] (person one, serum), 0.5 ng/mL; in data set [1] (person two, cells), 12.2 pg/MM WBC. Also, the VAF in data set [2] (person one, cells) is 0.067; in data set [2] (person one, serum) it was 0.018; in data set [2] (person two, cells), 0.067. Also, the “Follow-up Nutrient Level” value in data set [3] is 0.00072 µg/mL. Further, the “Actual Nutrient Value (ANV)” value in data set [3] is reported as 0.1 ng/mL.
As to `[Zn]` [Zinc], the Post-test biomarker level stood at 4.8 ng/MM WBC in data set [1] (person one, cells, after ATB) and 1100 ng/mL in data set [1] (person two, level: Questionnaire, after ATB). Besides, the “Follow-up Biomarker level” value came out at 14.1 ng/MM WBC in data set [1] (setting [9]) and 1470 ng/mL in data set [1] (person two, level: Questionnaire, after customized blend). For the same compound, the Pre-test biomarker level stood at 2.8 ng/MM WBC in data set [1] (person one, cells) and 750 ng/mL in data set [1] (setting [10]). Besides, in data set [1] (serum, after customized blend), the “Follow-up Nutrient Level” value was 1.55 µg/mL. Besides, the “Actual Nutrient Value (ANV)” value in data set [1] (serum) was found to be 0.5 µg/mL. Also, the VAF in data set [2] (person one, cells) worked out at 1.333; in data set [2] (setting [10]), 0.2333. Moreover, the UTL was 40 mg/day in data set [4] (Table 18, person one); 40 mg/day in data set [4] (Table 19, person two); 40 mg/day in data set [4] (Table 20, person three).
Consider Vitamin A, for which the “Follow-up Nutrient Level” value is 14.4 pg/MM WBC in data set [1] (cells, after customized blend) and 1.28 µg/mL in data set [1] (serum, after customized blend). Besides, the “Actual Nutrient Value (ANV)” value in data set [1] (cells) came out at 0.4 pg/MM WBC; in data set [1] (serum), 0.35 µg/mL. In addition, the Post-test biomarker level in data set [1] (person two, cells, after ATB) came out at 2.1 pg/MM WBC; in data set [1] (person two, serum, after ATB) it was 470 ng/mL. For the same compound, the “Follow-up Biomarker level” value in data set [1] (setting [7]) was found to be 14.5 pg/MM WBC; in data set [1] (setting [8]), 1290 ng/mL. For the same compound, the Pre-test biomarker level in data set [1] (person two, cells) is 0.2 pg/MM WBC; in data set [1] (person two, serum) it was 220 ng/mL. Further, the VAF was found to be 0.0019 in data set [2] (person two, cells) and 0.025 in data set [2] (person two, serum). In addition, the UTL in data set [4] (Table 19, person two) was 10,000 IU/day; in data set [4] (Table 20, person three), 10,000 IU/day.
Consider Vitamin E, for which the Post-test biomarker level in data set [1] (person one, serum, after ATB) was 18200 ng/mL; in data set [1] (person two, serum, after ATB) it was 17800 ng/mL. For the same compound, the entries for the “Follow-up Biomarker level” value in data set [1] (setting [6]) and in data set [1] (setting [8]) were 36500 ng/mL and 35400 ng/mL, respectively. Besides, the Pre-test biomarker level was 5500 ng/mL in data set [1] (person one, serum) and 3200 ng/mL in data set [1] (person two, serum). Moreover, the VAF in data set [2] (person one, serum) was 4.233; in data set [2] (person two, serum), 4.867. The “Follow-up Nutrient Level” value in data set [3] is 5.4 µg/mL. Besides, in data set [3], the “Actual Nutrient Value (ANV)” value was determined as 4200 ng/mL.
